Assay results: a compilation of properties of binary mixtures (doi:10.1021/je300622r)

Assay: xn = mol fraction of the nth substance listed
Conditions: 101 kPa

CCOS(=O)(=O)[O-].CC[n+]1ccn(C)c1 + O
viscosity [mPa·s]
Conditions	283.15 K	293.15 K	303.15 K	313.15 K	323.15 K	333.15 K	343.15 K
x2 = 0.0023	242.3	–	81	52.62	36.24	26.16	–
x2 = 0.1225	171.3	–	62.11	41.51	29.17	21.46	16.37
x2 = 0.1966	–	81.3	52.09	35.42	25.3	18.81	–
x2 = 0.427	62.49	40.03	27.26	19.53	–	11.24	–
x2 = 0.6124	–	21.82	15.38	11.33	8.663	6.824	5.518
x2 = 0.798	14.52	10.01	7.24	5.453	4.246	3.402	2.791
x2 = 0.8983	6.801	4.853	3.618	2.793	2.221	1.813	1.518

CC[n+]1ccn(C)c1.COS(=O)(=O)[O-] + O
viscosity [mPa·s]
Conditions	278.15 K	288.15 K	298.15 K	308.15 K	318.15 K	328.15 K	338.15 K
x2 = 0.0023	246.3	–	–	54.77	–	–	20.53
x2 = 0.0887	226	129.2	–	53.07	37.01	26.98	20.42
x2 = 0.2235	164.6	97.7	62.41	–	30.1	22.43	17.93
x2 = 0.4163	81.88	51.53	34.54	–	17.94	13.72	–
x2 = 0.6106	36.75	24.28	16.97	12.4	9.404	7.362	–
x2 = 0.7999	14.47	9.971	7.21	5.427	4.222	3.378	2.767
x2 = 0.8948	6.791	–	3.635	–	2.247	1.836	1.534
